Results taken from US20230210832A1, “METHODS FOR TREATING ALZHEIMER'S DISEASE” (priority 2020, published 2023).
Values after ≈ are worked out from the molar mass of the structure shown.

How the values were obtained:
[1] = tested on: Human brain endothelial cells (HBEC-5i); assay: Western blot of HBEC-5i cell lysates after peptide treatment; format: cell-based; conditions: 24 hrs, Aβ peptides 10 μM, Ang-2 200 ng/ml, VEGFA-165 100 ng/ml, vs PBS-treated cells
Description: Human brain endothelial cells, HBEC-5i (ATCC® CRL-3245™) were cultured on 0.1% gelatin coated tissue culture plates in DMEM-F12 media (Gibco; cat. #10565-018) supplemented by 10% heat-inactivated fetal bovine serum (FBS) (Gibco; cat. #A31607-01) and 40 μg/ml endothelial growth supplement (Sigma-Aldrich; cat. #E2759). Cells were grown until they reached 70% confluency and then used for experiments.
Cell culture: Human brain endothelial cells were grown in 10 cm tissue culture plates. […] After the treatment, the medium was removed, and cells were washed with PBS and then lysed with RIPA buffer that contained protease and phosphatase inhibitors. These cells were then used to analyze different proteins of interest.
Immunoblotting analysis and co-immunoprecipitation: For western blot analysis, the fractional homogenate samples were prepared with Dithiothreitol (DTT) in the sample buffer (100 mM Tris-Cl (pH 6.8), 4% (w/v) SDS, 0.2% (w/v) bromophenol blue, 20% (v/v) glycerol and 200 mM DTT). Homogenates were electrophoresed and immunoblotted with indicated antibodies. […] The proteins in the eluate were resolved on the acrylamide gel according to standard practices. […] The signal intensities were imaged by using the Odyssey infrared image system (LICOR), and relative levels of immunoreactivity were analyzed by the Image Studio Lite software.

[2] = tested on: Tg2576 AD model mice and WT (B6/SJL) littermates; assay: Contextual fear conditioning; format: in vivo, mouse; conditions: 1-month treatment, mean±standard deviation
Description: Contextual Fear Conditioning: The apparatus consisted of a transparent chamber inside an enclosure with an opening in the ceiling to allow video recordings. The chamber consisted of a steel grid floor connected to a shock generator scrambler. The test encompassed two sessions: conditioning and a context test. On the conditioning day, the mice were individually placed in the chamber and allowed to explore freely for 5 minutes during which, at the 180th second, they received a foot shock of 0.50-0.80 mA for 3 seconds through the bars of the floor. 24 hours after conditioning, the mice were individually placed back in the chamber for 4 minutes, this time with no noxious stimuli. The mice were monitored for movement and freezing behaviour was recorded using computer software (Limelight, ActiMetrics, Wilmette, Ill., USA). Exclusion criteria were set for freezing events less than 2 seconds. This test was used to determine associative working memory. We explored the animal's ability to associate an environment with a noxious event that it experienced there. […] Freezing is a species-specific response to fear, which is defined as “the absence of movement except for respiration.” This may last for seconds to minutes depending on the strength of the aversive stimulus and whether the subject is able to recall the shock.

[3] = mice, 26 weeks of once daily oral gavage administration; cited from earlier work
physchem = conditions: 100% DMSO, organic solvent or mixture
[4] = tested on: Tg2576 AD model mice and WT (B6/SJL) littermates; assay: Spontaneous alternation (Y-maze); format: in vivo, mouse; conditions: drug-treated Tg2576 mice, 1-month treatment; mean±standard deviation
Description: Spontaneous alternation (Y-maze): The test for novelty exploration using spatial and working memory was conducted using a symmetrical Y-maze with a grey steel bottom plate and grey Perspex® walls (Stoelting Co, Wood Dale, Ill.). Each arm of the Y-maze was 35 cm long, 5 cm wide, and 10 cm high, and the wall at the end of each arm was identified by a different colour: white, blue or red. The spatial acquisition phase comprised a one-day trial with the mice tracked while moving freely through the three arms of the Y maze during an 8-minute session. The movements were tracked by a computer tracking system (ANY-maze, Stoelting). The performance was gauged by the percentage of alternations that was calculated as the total number of alternations×100/(total number of arm entries−2). Alternation was defined as successive entries into the three arms on overlapping triplet sets. A high percentage of alternation was indicative of sustained cognition, as the animals must remember which arm was entered last to avoid re-entering it.

Molecule | expression of VEGFR2 [1] | freezing percentage ([2]; drug-treated Tg2576 mice) [%] | freezing percentage ([2]; drug-treated WT (B6/SJL) mice) [%] | no-observed-adverse-effect-levels (NOAELs) [3] [mg/kg/day] | solubility (physchem) [mg/mL] | percentage of alternation [4] [%]
Aβ1-42 peptide: Aβ1-42 peptide (NovoPrep synthetic peptide), predominantly found in plaques | did not exert a similar effect | – | – | – | – | –
CNC(=O)c1ccccc1Sc1ccc2c(/C=C/c3ccccn3)n[nH]c2c1 [Axitinib] | – | 14.4±7.3 | 17.74±14.4 | < 10 | 40 (≈ 103 mM) | –
CCN(CC)CCNC(=O)c1c(C)[nH]c(/C=C2\C(=O)Nc3ccc(F)cc32)c1C [Sunitinib] | – | 10.9±5.8 | 25.4±19.4 | – | 30 (≈ 75.3 mM) | 49.3±12.1
Ang-2 peptide: human Ang-2 peptide (abcam; ab99482), Tie-2 receptor ligand (protein, UniProt O15123 19-496, looked up) Angiopoietin-2: YNNFRKSMDSIGKKQYQVQHGSCSYTFLLPEMDNCRSSSSPYVSNAVQRDAPLEYDDSVQRLQVLENIMENNTQWLMKLENYIQDNMKKEMVEIQQNAVQNQTAVMIEIGTNLLNQTAEQTRKLTDVEAQVLNQTTRLELQLLEHSLSTNKLEKQILDQTSEINKLQDKNSFLEKKVLAMEDKHIIQLQSIKEEKDQLQVLVSKQNSIIEELEKKIVTATVNNSVLQKQQHDLMETVNNLLTMMSTSNSAKDPTVAKEEQISFRDCAEVFKSGHTTNGIYTLTFPNSTEEIKAYCDMEAGGGGWTIIQRREDGSVDFQRTWKEYKVGFGNPSGEYWLGNEFVSQLTNQQRYVLKIHLKDWEGNEAYSLYEHFYLSSEELNYRIHLKGLTGTAGKISSISQPGNDFSTKDGDNDKCICKCSQMLTGGWWFDACGPSNLNGMYYPQRQNTNKFNGIKWYYWKGSGYSLKATTMMIRPADF | slight increase | – | – | – | – | –
